The values below come from patent US4146637A, “Anti-inflammatory N-acyl substituted benzamides” (priority 1976, dated 1979).

A word on the minimal effective dose: it is the smallest amount tested that counted as effective. Usually LD50 stands for the dose at which mortality reaches 50%.

Where a name gives a salt, the structure may show the parent alone. Read-outs that look alike come from different tables or passages of the source.

The nature of data set [1]: antiallergic characteristics (summary statement). Conditions: result in words.
Data set [2] is described as follows: acute carrageneen experiment. The data set is classed as in vivo. The note with it: result in words.
Data set [3] relates to Adjuvans arthritis. The experiment in a line: Adjuvans arthritis stoppage. The data set is classed as in vivo, rat. Conditions: for anti-inflammatory activity in the adjuvenous arthritis test: result in words; for Adjuvans arthritis stoppage, percent inhibition of the secondary lesions on the 14th day (first value) / Adjuvans arthritis stoppage, percent inhibition of the secondary lesions on the 14th day (second value): rat, 100 mg/kg p.o.; for Adjuvans arthritis stoppage, percent inhibition of the secondary lesions on the 14th day (first value): first of two values; for Adjuvans arthritis stoppage, percent inhibition of the secondary lesions on the 14th day (second value): second of two values. The method, then:
(§1) As the results of Table 3 show, the compounds of this invention have both lower toxicity and different side effects than metoclopramide. Compounds of this invention have interesting pharmacological characteristics. The pharmaco dynamics of the compounds prepared in Examples 9, 43 and 48 in the form of their hydrochlorides, as well as the reference compound, metoclopramide dihydrochloride, were determined by pharmacological screening for 54 group activities. The activities which were found were confirmed by secondary tests. Additionally, the ED100 of known group-specific comparative compounds is given.

Data set [4] is described as follows: antimicrobial characteristics (summary statement). Conditions: result in words.
Data set [5] in a line: Anti-electroshock test. The data set is classed as in vivo. The note with it: po, mouse, p.o. The method, then: as §1
Data set [6] in a line: Cataleptic test. The data set is classed as in vivo, mouse. The note with it: po; for minimal effective dose at 100 mg/kg: mouse, p.o., read-out: Cataleptic, MED (average minimal effective dose). The method, then: as §1
Data set [7] can be described thus: Antiedematous test. The data set is classed as in vivo. The note with it: po, rat, p.o.; for minimal effective dose: read-out: Antiedematous, MED (average minimal effective dose). The method, then:
as §1

Data set [8] is described as follows: Antiasthmatic test. The data set is classed as in vivo. The note with it: po, rat, p.o.; for minimal effective dose: read-out: Antiasthmatic, MED (average minimal effective dose). The method, then:
as §1

Data set [9] can be described thus: Muscle relaxant test. The data set is classed as in vivo, mouse. Conditions: po; for minimal effective dose at 300 mg/kg: mouse, p.o., read-out: Muscle relaxant, MED (average minimal effective dose). The method, then:
as §1

The nature of data set [10]: Systematic anaphylactic test. The data set is classed as in vivo. Conditions: po, mouse, p.o. The method, then:
as §1

Data set [11] in a line: Antithrombotic test. The data set is classed as in vivo, rat. The note with it: po; for minimal effective dose at 100 mg/kg: rat, p.o., read-out: Antithrombotic, MED (average minimal effective dose). The method, then: as §1
The nature of data set [12]: Amphetamine stereotype. The data set is classed as in vivo, mouse. Conditions: po. The method, then: as §1
The nature of data set [13]: Antiaggressive test. The data set is classed as in vivo, mouse. The method, then: as §1
The test system of data set [14] is E. Coli. The experiment in a line: antibacterial test E. Coli, in vitro. The data set is classed as cell-based. Conditions: in vit. The method, then: as §1
The nature of data set [15]: Antiarrhytmic test. The data set is classed as in vivo. The note with it: mouse, i.p. The method, then:
as §1

Data set [16] concerns β-adrenergic. The experiment in a line: β-adrenergic blockage, in vitro. More on the design: unit not given here. The note with it: in vit., rat, dose 10. The method, then:
as §1

The conditions of data set [17]: rat, cited from earlier work.
The conditions of data set [18]: i.p., mouse; cited from earlier work.

Turning to `CCN(CC)CCNC(=O)c1cc(Cl)c(NC(=O)COc2ccc(Cl)cc2)cc1OC` [Example 40], the antiallergic characteristics entry in data set [1] is on record as “antiallergic characteristics”. In addition, in data set [2], the “anti-inflammatory activity in the acute carrageneen experiment” value is recorded as “very strong anti-inflammatory activity”. For the same compound, the “anti-inflammatory activity in the adjuvenous arthritis test” value in data set [3] is “very strong anti-inflammatory activity”. For the same compound, the antimicrobial characteristics entry in data set [4] is “weak antimicrobial”.

As for `O=C1NC(=O)C(c2ccccc2)(c2ccccc2)N1` [diphenylhydomtoin], the ED100 in [5] (read-out: Anti-electroshock, ED100 of reference compound) is 10 mg/kg.

Consider `CCN(CC)CCNC(=O)c1cc(Cl)c(NC(=O)COc2ccc(Cl)cc2)cc1OC` [Example 43], for which the “Adjuvans arthritis stoppage, percent inhibition of the secondary lesions on the 14th day (first value)” value in [3] was 43%. Further, in data set [3], the “Adjuvans arthritis stoppage, percent inhibition of the secondary lesions on the 14th day (second value)” value came to 46%. The minimal effective dose at 100 mg/kg in [6] stood at 100 mg/kg; in data set [11] it was 50 mg/kg. Moreover, the minimal effective dose in data set [7] amounted to 100 mg/kg; in data set [8], 100 mg/kg; in [10] (read-out: Systematic anaphylactic, MED (average minimal effective dose)), 100 mg/kg. In addition, the minimal effective dose at 300 mg/kg in data set [9] amounted to 300 mg/kg.

Take `CN(C)CCCN1c2ccccc2Sc2ccc(Cl)cc21` [chlorpromazine]: the ED100 stood at 5 mg/kg in data set [12] (Mus musculus, read-out: Amphetamine stereotype, ED100 of reference compound) and 5 mg/kg in [13] (Mus musculus, po, read-out: Antiaggressive, ED100 of reference compound).

Consider `CCC1(c2ccccc2)C(=O)NC(=O)NC1=O` [phenobarbital], for which the ED100 in [6] (Mus musculus, read-out: Cataleptic, ED100 of reference compound) came to 100 mg/kg; in [9] (Mus musculus, read-out: Muscle relaxant, ED100 of reference compound), 100 mg/kg.

`CN(C)CCOc1ccccc1Cc1ccccc1` [phenyltoloxamine]: the ED100 in [10] (read-out: Systematic anaphylactic, ED100 of reference compound) worked out at 50 mg/kg.

On to `CC1(C)S[C@@H]2[C@H](NC(=O)[C@H](N)c3ccccc3)C(=O)N2[C@H]1C(=O)O` [ampicillin], for which the “E. Coli, ED100 of reference compound” value in [14] is reported as 0.5 mg/kg.

In the case of guanidine, in [15], the “Antiarrhytmic, ED100 of reference compound” value was found to be 100 mg/kg.

For `CCN(CC)CCNC(=O)c1cc(Cl)c(NC(=O)C(C)Oc2ccc(Cl)cc2)cc1OC` (stereo not drawn) [Example 45], the antiallergic characteristics entry in [1] is on record as “antiallergic characteristics”. For the same compound, in data set [2], the “anti-inflammatory activity in the acute carrageneen experiment” value is on record as “very strong anti-inflammatory activity”. Also, the “anti-inflammatory activity in the adjuvenous arthritis test” value in data set [3] is given as “very strong anti-inflammatory activity”. In addition, the antimicrobial characteristics result in data set [4] is given as “weak antimicrobial”.

With `CC(=O)Oc1ccccc1C(=O)O` [acetylsalicylic acid], in data set [11] (Rattus norvegicus, read-out: Antithrombotic, ED100 of reference compound), the ED100 is 100 mg/kg.

For `CCN(CC)CCNC(=O)c1cc(Cl)c(N)cc1OC` [metoclopramide dihydrochloride], the minimal effective dose at 25 mg/kg in data set [12] (mouse, p.o., dose 25 mg/kg, read-out: Amphetamine stereotype, MED (average minimal effective dose)) stood at 25 mg/kg. For the same compound, the minimal effective dose was found to be 100 mg/kg in data set [5] (read-out: Anti-electroshock, MED (average minimal effective dose)); 50 mg/kg in data set [7]; 100 mg/kg in data set [15] (ip, read-out: Antiarrhytmic, MED (average minimal effective dose)). The same compound displayed an Antiaggressive in data set [13] (mouse, p.o., dose 50 mg/kg, MED not given) of 50 mg/kg. Moreover, the minimal effective dose at 100 mg/kg in data set [6] was 100 mg/kg. Besides, the minimal effective dose at 300 mg/kg in [9] worked out at 100 mg/kg.

As for `CCN(CC)CCNC(=O)c1cc(Cl)c(NC(=O)C(C)Oc2ccc(Cl)cc2)cc1OC` (stereo not drawn) [Example 48], in data set [3], the “Adjuvans arthritis stoppage, percent inhibition of the secondary lesions on the 14th day (first value)” value is 45% and the “Adjuvans arthritis stoppage, percent inhibition of the secondary lesions on the 14th day (second value)” value came to 33%. Moreover, the minimal effective dose in [8] stood at 100 mg/kg. The minimal effective dose at 100 mg/kg in data set [11] is 100 mg/kg.

As to `CCCCC1C(=O)N(c2ccccc2)N(c2ccccc2)C1=O` [phenybutazone], the ED100 in data set [7] (read-out: Antiedematous, ED100 of reference compound) stood at 50 mg/kg.

`CCN(CC)CCNC(=O)c1cc(Cl)c(NC(=O)C(C)(C)Oc2ccc(Cl)cc2)cc1OC` [Example 9]: the “β-adrenergic blockage, MEC (average effective concentration)” value in data set [16] stood at 10.

For the compound `CCN(CC)CCNC(=O)c1cc(Cl)c(N)cc1OC` [metoclopramide], the 50% lethal dose (LD50) in [17] (i.p.) was 180 mg/kg; in [17] (oral), 235 mg/kg; in [18] it was 242 mg/kg.

`O=C(O)c1cc(=O)c2c(OCC(O)COc3cccc4oc(C(=O)O)cc(=O)c34)cccc2o1` [chromoglycine-sodium]: the ED100 in data set [8] (read-out: Antiasthmatic, ED100 of reference compound) turned out to be 60 mg/kg.
